Test results reported in patent publication US11629174B2, “Cryptic metabolites and method for activating silent biosynthetic gene clusters in actinomycete bacteria” (The Trustees of Princeton University, priority 2017, dated 2023).

Columns and labels:
Gene cluster 3648 = test: HiTES in S. avermitilis, gene cluster 3648; format: cell-based; conditions: FIGS. 16 and 17
SAV3643 and SAV3665 = test: RT-qPCR of SAV3643 and SAV3665 in cluster 3648; format: cell-based, S. avermitilis; conditions: 5 ug/mL, relative to untreated samples
S. avermitilis = test: Growth inhibition of S. avermitilis by elicitor; format: cell-based; conditions: dose-response series in 2.5 ug/mL steps
Gene cluster 2631 = test: HiTES in S. erythraea, gene cluster 2631; format: cell-based; conditions: FIG. 10
Gene cluster 2875 = test: HiTES in S. erythraea, gene cluster 2875; format: cell-based; conditions: FIG. 11
Gene cluster 4143 = test: HiTES in S. erythraea, gene cluster 4143; format: cell-based; conditions: FIG. 12
Gene cluster 4286 = test: HiTES in S. erythraea, gene cluster 4286; format: cell-based; conditions: FIG. 13
Gene cluster 4477 = test: HiTES in S. erythraea, gene cluster 4477; format: cell-based; conditions: FIG. 14
sur cluster = test: High-throughput elicitor screen (HiTES), eGFPx3 reporter strains of the sur cluster; format: cell-based, Streptomyces albus J1074; conditions: attB::Psur-eGFPx3 and surE::eGFPx3, ~33 μM, 60 h, hit threshold 2.5-fold eGFP fluorescence
Procedure: These next four steps are seen be referring to the previously described example. In the previously described example, HiTES was carried out using the two constructs seen in FIGS. 2B and 2C with a ˜500-member natural products library. Each S. albus construct was grown in a 96-well format, supplemented with the compound library, and the effect of each compound on the silent BGC determined using eGFP-derived fluorescence. Interference from naturally fluorescent compounds in the library was eliminated by subtracting the […], immediately after addition of the library members.
Referring to FIGS. 3A and 3B, results for both genetic constructs are shown. These graphs show relative expression of a neutral site reporter, attB::Psur-eGFPx3 (FIG. 3A) or targeted sur reporter, surE::eGFPx3 (FIG. 3B) as a function of exogenously-supplied small molecules. Each bar represents the level of expression of sur in the presence of a single candidate elicitor. Plus signs denote the positive control, attB::PermE-eGFPx3. Minus signs denote the negative controls, attB::Psur-eGFPx3 (3A) or surE::eGFPx3 (3B) in the absence of any metabolites. The expression has been normalized to the positive control.
In this example, the threshold amount was a 2.5 fold induction of eGFP-derived fluorescence emission. Thus, hits were considered those that gave at least a 2.5-fold induction of eGFP-derived fluorescence emission. However, in other embodiments, hits may be those giving at least a 2 fold induction, more preferably at least a 3 fold induction, and more preferably at least a 4 fold induction.
Seed cultures for the reporter strains sur::eGFPx3, attB::Psur-eGFPx3, negative control wild-type, and positive control attB::PermE-eGFPx3 inoculated by transferring fresh spores (˜10^7) into 20 mL of YEME medium (per L: 3% (w/v) yeast extract, 5% peptone, 3% malt extract, 1% glucose and 10.7% sucrose, and 5 mM MgCl2.6H2O) in a 125 mL Erlenmeyer flask equipped with stain-less steel springs. The cultures were grown at 30° C. and 250 rpm for 3 days. Mycelia from each of the four cultures were collected by centrifugation (10 min, 3000 g, RT) and diluted into 150 mL of R4 medium to give a final concentration of 0.05% (w/v). R4 medium consisted of (per L) 0.5% (w/v) glucose, 0.1% yeast extract, 0.5% MgCl2.6H2O, 0.2% CaCl2.2H2O, 0.15% proline, 0.118% valine, 0.28% TES, 50 mg/L casamino acid, 100 mg/L K2SO4, and 1× trace element solution, which contains 40 mg/L ZnCl2, 200 mg/L FeCl3.6H2O, 10 mg/L CuCl2.2H2O, 10 mg/L MnCl2.4H2O, 10 mg/L Na2B4O7.10H2O, and 10 mg/L (NH4)6Mo7O24.4H2O).
Subsequently, the two reporter strains (sur::eGFPx3 and attB::Psur-eGFPx3) were each dispensed into 5× sterile, clear-bottom 96-well plates (150 μL per well) using a MultiFlo Microplate Dispenser (BioTek). A separate sterile 96-well separate plate was prepared for positive and negative controls; it contained the negative control (wt S. albus J1074) in columns 1-3, sur::eGFPx3 in columns 4-6, attB::Psur-eGFPx3 in columns 7-9, and the positive control attB::PermE-eGFPx3 in columns 10-12 of the plate. No elicitors were added to the control plates. […] Upon additional of the compound library, t=0 fluorescence reads were recorded on a Synergy H1MF plate reader (BioTek) using Aex=485 nm and Aem=505-650 nm in 5 nm steps. […]

surA and surC = test: RT-qPCR of surA and surC transcripts in wt S. albus; format: cell-based, Streptomyces albus J1074
Procedure: In the example above, the effects of these putative elicitors on the sur cluster were validated by performing a RT-qPCR with wt S. albus. Upon exposure of S. albus to each elicitor or DMSO (control), total RNA was be isolated, converted to cDNA and the surA and surC transcripts quantified by qPCR. […] To further verify the effect of 1 and 2, a dose-response assay was carried out. With both elicitors, a concentration-dependent induction of sur was observed, yielding optimal upregulation at a final concentration of ˜23 μM (etoposide) and −30 μM (ivermectin) (FIG. 4B). These concentrations induced a ˜10-fold (etoposide) and 4.5-fold (ivermectin) upregulation of surC.
All operations involving RNA utilized a dedicated RNase-free work area. To commence the experiment, seed cultures of wt S. albus J1074 were prepared by inoculating 3 ml of TSBY medium (3% (w/v) tryptic soy broth and 0.5% yeast extract) in a sterile 14 ml bacterial culture tube with freshly-prepared spores (˜10^7). The culture was incubated at 30° C. and 250 rpm in an Ecotron Shaker (ATR). After 48 hours cultivation, the cells were collected by centrifugation and subsequently diluted to a final concentration of 0.05% (w/v) in 250 ml Erlenmeyer flask containing 50 ml of R4 medium. Desired elicitors were added to final concentrations indicated in the figures (typically 1-100 μM), and the cultures were incubated at 30° C. and 250 rpm. After 48 h, 1 ml was removed from each sample and transferred to a 1.5 ml RNase-free Eppendorf tube (Ambion). Each sample was centrifuged (16,000 g, 3 min) to collect the cells, the supernatant discarded, the cells flash-frozen in liquid N2, and stored at −80° C.
RNA isolation was carried out using the Qiagen RNeasy kit following the manufacturer's instructions without modifications. Upon isolation, contaminating DNA was removed using the DNA-free kit (Ambion) according to manufacturer's instructions. Gel electrophoreses subsequently confirmed RNA integrity (FIG. S2). Finally, total RNA was converted into cDNA via the PrimeScript™ RT reagent Kit (Takara) using random hexamers as primers and 500 ng of each RNA sample as template.
Three genes (surA, surC and surR) were chosen for quantification by RT-qPCR. The primers were designed using primer-3-plus software available online. The primers were carefully chosen to give an amplicon length of 130-160 bp and a melting temperature of 60° C., though this was later optimized (see below and Table 2). The primers were chosen to vary in length between 18-22 bp, and, if possible, to contain a single G/C clamp at the 3′ end. To ensure optimal qPCR parameters, the genomic DNA of S. albus J1074 was isolated using the Wizard genomic DNA purification kit (Promega), and each amplicon was subsequently amplified using standard PCR conditions with a high-fidelity, proof-reading Q5 DNA polymerase (NEB). The PCR reactions were then separated on a 1.2% agarose gel, the amplicon excised, and gel-extracted with the Gel Extraction kit (Qiagen). The extracted DNA was used to optimize qPCR conditions. Using the amplicon template, the primer concentrations were first varied followed by the annealing/extension temperatures, which ranged from 58-68° C. in eight steps. The combination that gave the lowest quantification cycle (Cq) was used in the experiments (Table 2). The Cq was obtained with an automatic baseline determined by the CFX Manager Software (Bio-Rad). As positive controls, these standards were included in every plate that contained the experimental samples, along with no-DNA controls, in duplicates.
qPCR analysis was performed on a CFX96 Real-Time PCR Detection System (Bio-Rad) consisting of a C1000 Thermal Cycler and a CFX96 Real-Time System. The reaction was carried out in hard-shell, clear 96-well qPCR plates (Bio-Rad) and utilized the iTaq Universal SYBR Green Supermix (Bio-Rad). […]

S. albus = test: Anti-bacterial effect of elicitor on the producing strain; format: cell-based, Streptomyces albus J1074; conditions: at high concentrations

## CN[C@@H]1[C@H](O)[C@H](NC)[C@H]2O[C@@]3(O)C(=O)C[C@@H](C)O[C@H]3O[C@@H]2[C@H]1O [Spectinomycin]
Gene cluster 3648
  elicitor of gene cluster 3648 (ranking): top four elicitors
SAV3643 and SAV3665
  upregulation of SAV3643 and SAV3665: 40-50 fold
S. avermitilis
  concentration that inhibited growth: greater than 7.5 ug/mL

## CC1(C)CCC2=C(O1)c1ccccc1C(=O)C2=O [beta-Lapachone]
Gene cluster 2631
  elicitor of gene cluster 2631 (ranking): top three elicitors
Gene cluster 2875
  elicitor of gene cluster 2875 (ranking): top two elicitors
Gene cluster 4143
  elicitor of gene cluster 4143 (ranking): top three elicitors
Gene cluster 4286
  elicitor of gene cluster 4286 (ranking): top three elicitors
Gene cluster 4477
  elicitor of gene cluster 4477 (ranking): top three elicitors

## COc1cc([C@@H]2c3cc4c(cc3[C@@H](O[C@@H]3O[C@@H]5CO[C@@H](C)O[C@H]5[C@H](O)[C@H]3O)[C@H]3COC(=O)[C@H]23)OCO4)cc(OC)c1O [etoposide]
Sur cluster
  induction of the sur cluster in both reporter strains (hit ranking): best hits
surA and surC; at the optimal elicitor concentration, vs DMSO
  upregulation of surC: ~10 fold
surA and surC; dose-response, RT-qPCR
  final concentration yielding optimal upregulation of sur: ~23 µM
surA and surC; mRNA vs DMSO control, wt S. albus
  induction of surA and surC: 3 fold
S. albus
  anti-bacterial effect on S. albus: had anti-bacterial effects on S. albus
